One assay addresses T1, recombinant human CK2 (Homo sapiens, UniProt P68400).
T1 construct: purchased Millipore
Description: CK2 Kinase Assay (33P-ATP, substrate peptide RRRDDDSDDD). It is filed as biochemical. As to conditions: final ATP concentration 15 μM; 10 min at 30° C.; eight concentrations; read-out: protein kinase CK2 IC50. As to the method:
CK2 Kinase Assay was conducted using the protocol as described in Pierre F. et al; J. Med. Chem. 2011, 54, 635-654. The tested compounds in aqueous solution were added at a volume of 10 μL to a reaction mixture comprising 10 μL of assay dilution buffer (ADB; 20 mM MOPS, pH 7.2, 25 mM β-glycerol phosphate, 5 mM EGTA, 1 mM sodium orthovanadate, and 1 mM dithiothreitol), 10 μL of substrate peptide (RRRDDDSDDD, dissolved in ADB at a concentration of 1 mM), 10 μL of recombinant human CK2 (RRββ-holoenzyme, 25 ng dissolved in ADB; Millipore). Reactions were initiated by the addition of 10 μL of ATP solution (90%75 mMMgCl2, 75 µM ATP (final ATP concentration: 15 μM) dissolved in ADB; 10% [γ-33P] ATP (stock 1 mCi/100 μL; 3000 Ci/mmol (Perkin-Elmer) and maintained for 10 min at 30° C. The reactions were quenched with 100 μL of 0.75% phosphoric acid and then transferred to and filtered through a phosphor cellulose filter plate (Millipore). After washing each well five times with 0.75% phosphoric acid, the plate was dried under vacuum for 5 min and, following the addition of 15 μL of scintillation fluid to each well, the residual radioactivity was measured using a Wallac luminescence counter. The IC50 values were derived from eight concentrations of test inhibitors.

A further assay concerns HL60 (leukemia). Description: In vitro cytotoxic activity MTT assay, HL60. In kind it is cell-based. As to conditions: Homo sapiens, HL-60; cells exposed for 96 hours; 50% inhibition of cell proliferation; read-out: Cytotoxicity activity IC50, HL60 (leukemia). The procedure:
(§1) Compounds 1-16 were screened for their in vitro cytotoxic activity utilizing a 3-(4,5-dimethyl-thiazol-2-yl)-2,5-diphenyltetrazolium bromide (MTT) assay against selected cancer human cell lines consisting of PC3 (prostate), HCT116 (colon), A375 (melanoma), H1299 (lung), MIAPaCa-2 (pancreas), HL60 (leukemia), MCF7 (breast), MDA-MB-231 (breast) (T. Mosmann, J. Immunol. Meth., 1983, 65, 55-63). The cells were cultured at 37° C. in RMPI1640 medium supplemented with 10% fetal bovine serum, 50 IU/mL penicillin, and 50 μg/mL streptomycin in a 5% CO2 incubator. All cells were sub-cultured 3 times/week by trypsinisation. Viable cells were seeded and allowed to adhere for 12 h before a test drug was added in 96-well plates at an initial density of 1.0×10^5 cells/mL. Tumor cell lines were separately exposed to various concentrations of the tested compounds followed by incubation at a temperature of 37° C. during 96 hours inside a medium of fresh RMPI 1640. Cells were subsequently incubated at 37° C. using MTT at 0.5 mg/mL during 4 hours. After removal of supernatant, formazan crystals were dissolved in isopropanol and the optical density was measured at 570 nm. CX-4945 was used as a positive control.
On the technique in general: Tetrazolium dyes change colour on reduction, which living cells bring about.

For the next assay, the system named is A375 (melanoma). Description: In vitro cytotoxic activity MTT assay, A375. In kind it is cell-based. As to conditions: Homo sapiens, A-375; cells exposed for 96 hours; 50% inhibition of cell proliferation; read-out: Cytotoxicity activity IC50, A375 (melanoma). The procedure: as §1
For another assay, the system named is PC3 (prostate). Description: In vitro cytotoxic activity MTT assay, PC3. It is filed as cell-based. Conditions: Homo sapiens; cells exposed for 96 hours; 50% inhibition of cell proliferation; read-out: Cytotoxicity activity IC50, PC3 (prostate). The procedure: as §1
The next assay deals with MIAPaCa-2 (pancreas). In words: In vitro cytotoxic activity MTT assay, MIAPaCa-2. In kind it is cell-based. As to conditions: Homo sapiens, MIA PaCa-2; cells exposed for 96 hours; 50% inhibition of cell proliferation; read-out: Cytotoxicity activity IC50, MIAPaCa-2 (pancreas). As to the method: as §1
A further assay deals with HCT116 (colon). In words: In vitro cytotoxic activity MTT assay, HCT116. In kind it is cell-based. Conditions: Homo sapiens, HCT-116; cells exposed for 96 hours; 50% inhibition of cell proliferation; read-out: Cytotoxicity activity IC50, HCT116 (colon). As to the method: as §1
A further assay relates to H1299 (lung). In words: In vitro cytotoxic activity MTT assay, H1299. Conditions: Homo sapiens, NCI-H1299; cells exposed for 96 hours; 50% inhibition of cell proliferation; read-out: Cytotoxicity activity IC50, H1299 (lung). It is filed as cell-based. As to the method:
as §1

Another assay concerns MCF7 (breast). In words: In vitro cytotoxic activity MTT assay, MCF7. It is filed as cell-based. As to conditions: Homo sapiens, cells exposed for 96 hours, 50% inhibition of cell proliferation, read-out: Cytotoxicity activity IC50, MCF7 (breast). As to the method:
as §1

The next assay has as its system MDA-MB-231 (breast). In words: In vitro cytotoxic activity MTT assay, MDA-MB-231. Conditions: Homo sapiens, cells exposed for 96 hours, 50% inhibition of cell proliferation, read-out: Cytotoxicity activity IC50, MDA-MB-231 (breast). It is filed as cell-based. As to the method:
as §1

T1 sequence (P68400 whole entry): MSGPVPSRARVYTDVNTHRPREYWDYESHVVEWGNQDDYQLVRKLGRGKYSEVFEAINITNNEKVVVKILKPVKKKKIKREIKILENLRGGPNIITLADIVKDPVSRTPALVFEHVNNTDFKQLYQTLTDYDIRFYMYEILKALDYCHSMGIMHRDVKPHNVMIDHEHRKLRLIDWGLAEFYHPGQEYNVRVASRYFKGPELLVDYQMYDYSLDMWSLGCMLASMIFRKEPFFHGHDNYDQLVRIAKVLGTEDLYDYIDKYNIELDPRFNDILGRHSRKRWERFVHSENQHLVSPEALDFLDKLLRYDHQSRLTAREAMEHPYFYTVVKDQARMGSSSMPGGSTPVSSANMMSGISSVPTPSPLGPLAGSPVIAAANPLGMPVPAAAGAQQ
T1 sequence (P67870 whole entry partner): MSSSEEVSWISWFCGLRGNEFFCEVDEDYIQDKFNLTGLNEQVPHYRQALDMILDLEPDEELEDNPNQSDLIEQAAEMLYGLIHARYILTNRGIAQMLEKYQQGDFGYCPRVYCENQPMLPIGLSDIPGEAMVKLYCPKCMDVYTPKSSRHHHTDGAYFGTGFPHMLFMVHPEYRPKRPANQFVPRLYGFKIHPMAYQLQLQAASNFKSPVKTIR

As for `Clc1cccc(Nc2c3cnccc3nc3c2nn2ccncc32)c1` [Compound (1), N-(3-chlorophenyl)pyrazino[1′,2′:1,5]pyrazolo[4,3-b][1,6]naphthyridin-7-amine], the IC50 on recombinant human CK2 came out at 100 µM; in the assay on HL60 (leukemia), 2.9 µM; in the assay on A375 (melanoma) it was 3.6 µM; in the assay with PC3 (prostate), 1.4 µM; in the assay on MIAPaCa-2 (pancreas), 1.1 µM; with HCT116 (colon), 1.7 µM. Further, the IC50 came out at 2.5 µM in the assay on H1299 (lung), 6.1 µM in the assay on MCF7 (breast) and 5.3 µM with MDA-MB-231 (breast).

In general, IC50 refers to the concentration that inhibits the measured activity by half.
